Legend:
[1] = MMV: MTT Cytotoxicity Assay Day 3 pi, U87-CD4-CCR5 cells, % cell death @ 5mM compound; assay type: toxicity, cell-based; conditions: human, u87-cd4-ccr5, 5000 µM
[2] = MMV: MTT Cytotoxicity Assay Day 3 pi, U87-CD4-CXCR4 cells, % cell death @ 5mM compound; assay type: toxicity, cell-based; conditions: human, u87-cd4-cxcr4, 5000 µM
[3] = system: Human immunodeficiency virus 1; assay: MMV: HIV JRFL CCR5-tropic replication-competent virus, virus & compound washed out Day 1 pi, P24 ELISA Day 7 pi, U87-CD4-CCR5, % inhibition at 5 mM compound; assay type: functional; parameters: dose or concentration left out as unconfirmed; conditions: Human immunodeficiency virus 1, JR-FL
[4] = system: Human immunodeficiency virus 1; assay: MMV: HIV NL4-3 CXCR4-tropic replication-competent virus, virus & compound washed out Day 1 pi, P24 ELISA Day 7 pi, U87-CD4-CXCR4, % inhibition at 5 mM compound; assay type: functional; parameters: dose or concentration left out as unconfirmed; conditions: Human immunodeficiency virus 1, NL4-3, U87.CD4.CXCR4
[5] = MMV: MTT Cytotoxicity Assay Day 7 pi of Assay #6 (compound washed out Day 1 pi), U87-CD4-CCR5 cells, % cell death @ 5mM compound; assay type: toxicity, cell-based; conditions: human, u87-cd4-ccr5, 5000 µM
[6] = MMV: MTT Cytotoxicity Assay Day 7 pi of Assay #7 (compound washed out Day 1 pi), U87-CD4-CXCR4 cells, % cell death @ 5mM compound; assay type: toxicity, cell-based; conditions: human, u87-cd4-cxcr4, 5000 µM
[7] = MMV: MTT Cytotoxicity Assay Day 7 pi of Assay #10 (NO washout), U87-CD4-CCR5 cells, % cell death @ 5mM compound; assay type: toxicity, cell-based; conditions: human, u87-cd4-ccr5, 5000 µM
[8] = MMV: MTT Cytotoxicity Assay Day 7 pi of Assay #11 (NO washout), U87-CD4-CXCR4 cells, % cell death @ 5mM compound; assay type: toxicity, cell-based; conditions: human, u87-cd4-cxcr4, 5000 µM
[9] = system: Human immunodeficiency virus 1; assay: MMV: HIV CXCR4-tropic env HxB2 pseudovirus assay produces luciferase signal in lieu of replicating viral particles Day 3 pi, U87-CD4-CXCR4, % inhibition at 5 mM compound; assay type: functional; parameters: dose or concentration left out as unconfirmed; conditions: Human immunodeficiency virus 1, HxB2, U87.CD4.CXCR4, 72 h
[10] = system: Human immunodeficiency virus 1; assay: MMV: HIV CXCR4-tropic env NL4-3 pseudovirus assay produces luciferase signal in lieu of replicating viral particles Day 3 pi, U87-CD4-CXCR4, % inhibition at 5 mM compound; assay type: functional; parameters: dose or concentration left out as unconfirmed; conditions: Human immunodeficiency virus 1, NL4-3, U87.CD4.CXCR4, 72 h

SMILES	% Cell Death [1]	% Cell Death [2]	inhibition [3] [%]	inhibition [4] [%]	% Cell Death [5]	% Cell Death [6]	% Cell Death [7]	% Cell Death [8]	inhibition [9] [%]	inhibition [10] [%]
COc1ccc(C2Sc3ccccc3N=C3C2=C(O)c2ccccc23)cc1 (stereo not given)	0	10	7	7	7	-32	17	3	–	–
CC(C)(C)c1ccc(C(=O)Nc2c3c(nn2-c2cccc(Cl)c2)CSC3)cc1	7	-37	–	7	2	-2	7	1	–	–
CCCCCCC(O)(c1ccc(F)cc1)C(CN1CCOCC1)c1ccccc1.Cl (stereo not given)	13	12	–	8	3	-17	-2	-35	–	–
Cc1ccc(C)c(Cn2c(N3CCC(C(=O)NCc4cccs4)CC3)nc3ccccc32)c1	108	38	–	–	57	2	98	47	7	–
COc1ccc(/C=C2/SC(=Nc3ccccc3)NC2=O)cc1	54	28	–	–	93	77	115	66	3	–
CCCc1c(C)nc2ccc(Br)cc2c1O	4	29	–	5	-7	7	25	27	–	–
COc1ccc(C(=O)Nc2ccc3nc(N4CCCCC4)cc(C)c3c2)cc1OC	108	23	–	5	78	16	91	106	–	–
Cc1cccc(N2C(=O)C3C(C2=O)C2(c4ccccc4)C(=O)C3(c3ccccc3)C(c3ccc4c(c3)OCO4)=C2c2ccc3c(c2)OCO3)c1 (stereo not given)	4	35	–	3	4	-2	0	-20	–	–
CCOC(=O)c1cnc2ccc(OC)cc2c1NCc1ccccc1	-52	36	–	–	-10	12	-9	46	-2	–
Cc1ccc(C2CC(C(F)(F)F)n3nc(C(=O)N4CCN(C(c5ccccc5)c5ccccc5)CC4)cc3N2)cc1 (stereo not given)	86	64	–	–	77	62	75	58	5	–
O=C(Nc1nc(-c2ccccn2)cs1)c1ccccc1Br	-1	28	–	4	-13	-6	118	85	–	–
O=[N+]([O-])c1ccc(C=NNc2nc3ccccc3[nH]2)cc1	32	6	–	0	28	-15	38	22	–	–
CCOc1ccc(Nc2c3ccccc3nc3ccccc23)cc1.Cl	47	1	–	–	34	42	43	95	5	2
c1ccc(-c2ccc(-c3nc4ccccc4[nH]3)cc2)cc1	12	6	–	-1	16	-19	11	70	–	–
O=C(Nc1ccccc1O)c1ccc(Oc2cccc(C(=O)Nc3ccccc3O)c2)cc1	43	4	–	0	17	-12	28	-20	–	–
COc1ccc(-c2nc3cc(Cc4ccc5[nH]c(-c6ccc(OC)cc6)nc5c4)ccc3[nH]2)cc1	-6	23	–	–	-21	-21	4	6	1	–

SMILES	% Cell Death [1]	% Cell Death [2]	inhibition [3] [%]	inhibition [4] [%]	% Cell Death [5]	% Cell Death [6]	% Cell Death [7]	% Cell Death [8]	inhibition [9] [%]	inhibition [10] [%]
OC(CNC1CCCCC1)Cn1c2ccc(I)cc2c2cc(I)ccc21 (stereo not given)	27	25	3	–	3	-9	-2	26	3	–
COc1ccc(-c2cc3c(SCC(=O)Nc4cc(C(F)(F)F)ccc4Cl)nccn3n2)cc1	24	41	–	–	5	-22	18	13	6	–
CCC1(C)CC(CCNCc2ccccc2O)(c2ccc(C)cc2)CCO1 (stereo not given)	-22	14	–	–	9	0	27	19	0	–
Cc1cc(NCCN2CCCCC2)c2ccc3ccccc3c2n1	64	34	–	–	30	16	31	5	1	–
CCOc1cc2c(cc1OCC)C(c1cc(Cl)c(O)c(OCC)c1)NCC2 (stereo not given)	-45	15	–	3	8	-20	21	38	–	–
COc1ccc(NC(=O)C2c3ccccc3C(=O)N(CC(C)C)C2c2cccs2)cc1 (stereo not given)	16	13	3	6	-1	-38	-9	-27	–	–
CCN(CC)CCNc1ccnc2cc3ccccc3cc12.O=P(O)(O)O	33	28	9	-1	-26	-15	10	-36	–	–
CC(C)(C)CC(C)(C)NCC(O)COc1ccc2c(c1)CCC2.Cl (stereo not given)	-4	10	–	–	2	-11	-10	7	4	-1
COc1ccc(C=C2SC(Nc3ccc(F)cc3)=NC2=O)c(OC)c1	25	28	–	–	-49	0	96	65	4	–
CCc1ccc(Nc2cc(C)nc3nc(C)nn23)cc1	23	46	–	–	4	4	50	93	6	–
O=C(O)C1Cc2c([nH]c3ccccc23)C(c2ccc(Cl)cc2Cl)N1 (stereo not given)	10	11	–	0	15	-34	27	-2	–	–
COC(=O)c1ccc(C2C3=C(O)CC(c4ccc(F)cc4)CC3=Nc3ccccc3N2C(=O)c2ccccc2)cc1 (stereo not given)	-1	33	–	-1	39	12	18	-29	–	–
C=CCc1c(C)nc2ccccc2c1O	4	36	–	4	-8	38	109	50	–	–
O=C(CCc1ccco1)NC1CCN(CC2(c3ccc(Cl)cc3)CCC2)CC1	18	38	–	1	2	24	109	97	–	–
COc1cc(C(=O)Nc2nc3c(cc4c5c(cccc53)CC4)s2)cc(OC)c1OC	105	56	–	–	42	68	136	110	0	–
CCCCCCn1c(=N)n(CC(O)COc2cccc(C)c2)c2ccccc21.Cl (stereo not given)	43	17	–	–	33	-16	71	50	2	–
